From patent publication US12528792B2, “Sulfonamide compounds and the use thereof in the treatment of cancer” (TROBIO THERAPEUTICS PTY LTD, priority 2019, dated 2026)

Legend:
Type in all cases: cell-based
[1] = tested on: SK-N-SH neuroblastoma cells; assay: Cytotoxicity assay, MTS viability; settings: Homo sapiens, 72 hours
Experimental: The ability of compounds of the disclosure to inhibit the proliferation of SK—N—SH neuroblastoma cells was assessed. The SK—N—SH cell line was maintained as a monolayer in Dulbeccos Modified Eagles medium (DMEM) supplemented with 10% foetal bovine serum (FBS) and grown at 37° C. in a humidified atmosphere with 5% CO2. For the cytotoxicity assay, SK—N—SH cells were seeded at a density of 2×10^3 cells per well in 96-well plates. The cells were treated with serial dilutions of the test compounds (1:2 starting concentration 100 µM) and viability measured after 72 hours using a standard MTS assay. Cell viability was normalised to control (vehicle alone) and dose response curves and EC50 values (Table 3) were determined using Graph Pad Prism 6.

A2780 (ovarian) cells = assay: Anti-proliferative activity, Cell-Titre luminescent viability assay; settings: Homo sapiens, 72 h exposure, Cell-Titre luminescent reagent
Experimental: (§1) The ability of compounds of the disclosure to inhibit the proliferation of cancer cells representative of non-small cell lung cancer and ovarian cancer (Table 1), and pancreatic cancer, colorectal cancer and prostate cancer (Table 2) was assessed. Briefly, a predetermined number of cells as calculated from cell growth assays for each of the cell lines employed were seeded into their respective culture medium (using ATCC culture parameters—http://www.atcc.org) and cultured for 24 h at 37° C. and 5% CO2 in 96-well culture plates. Once attached, each cell line was then exposed to various concentrations of each respective analogue (100, 30, 10, 3, 1 and 0.3 µM or 30, 10, 3, 1, 0.3 and 0.1 μM), cultured for a further 72 h and exposed to Cell-Titre luminescent reagent (100 μL/well) for a further 30 min. Luminescence was captured using an EnVision multilabel reader and the data for each analogue concentration compared against no treatment control. Cell viability was normalised to control (vehicle alone) and dose response curves, and half maximal effective concentration (EC50) values were determined using Graph Pad Prism 6 (nonlinear regression sigmoidal dose-response variable slope).

A549 (NSCLC) cells = assay: as above; settings: Homo sapiens, 72 h exposure, Cell-Titre luminescent reagent
Experimental: as §1

SMILES: Cn1cc(S(=O)(=O)N2CCC(C(=O)Nc3ccc(C(F)(F)F)cc3)CC2)cc1C(N)=O [Compound 2, 1-((5-carbamoyl-1-methyl-1H-pyrrol-3-yl)sulfonyl)-N-(4-(trifluoromethyl)phenyl)piperidine-4-carboxamide]
- IC50 [1]: 26.4 µM
- IC50 (A2780 (ovarian) cells): 13.9 µM
- IC50 (A549 (NSCLC) cells): 33.7 µM

SMILES: CCC(C)c1ccc(NC(=O)C2CCN(S(=O)(=O)c3ccc4c(c3)CCN4)CC2)cc1 (stereo not shown) [Compound 3, N-(4-(sec-butyl)phenyl)-1-(indolin-5-ylsulfonyl) piperidine-4-carboxamide]
- IC50 [1]: 19.3 µM
- IC50 (A2780 (ovarian) cells): > 100 µM
- IC50 (A549 (NSCLC) cells): 19.9 µM

SMILES: O=C(Nc1ccc(C(F)(F)F)cc1)C1CCN(S(=O)(=O)c2ccc3c(c2)CCN3)CC1 [Compound 5, 1-(indolin-5-ylsulfonyl)-N-(4-(trifluoromethyl)phenyl)piperidine-4-carboxamide]
- IC50 [1]: 27.4 µM
- IC50 (A2780 (ovarian) cells): 14.8 µM
- IC50 (A549 (NSCLC) cells): 39.6 µM

SMILES: COc1ccc(NC(=O)c2ccn(S(=O)(=O)c3ccc4[nH]ccc4c3)c2)cc1F [Compound 103, 1-((1H-indol-5-yl)sulfonyl)-N-(3-fluoro-4-methoxyphenyl)-1H-pyrrole-3-carboxamide]
- IC50 (A2780 (ovarian) cells): > 30 µM
- IC50 (A549 (NSCLC) cells): > 30 µM

SMILES: O=C(Nc1ccc2c(c1)OCO2)c1ccn(S(=O)(=O)c2ccc3[nH]ccc3c2)c1 [Compound 104, 1-((1H-indol-5-yl)sulfonyl)-N-(benzo[d][1,3]dioxol-5-yl)-1H-pyrrole-3-carboxamide]
- IC50 (A2780 (ovarian) cells): 8.92 µM
- IC50 (A549 (NSCLC) cells): > 30 µM

SMILES: CCC(C)c1ccc(NC(=O)c2ccn(S(=O)(=O)c3ccc4[nH]ccc4c3)n2)cc1 (stereo not shown) [Compound 105, 1-((1H-indol-5-yl)sulfonyl)-N-(4-(sec-butyl)phenyl)-1H-pyrazole-3-carboxamide]
- IC50 (A2780 (ovarian) cells): 7.51 µM
- IC50 (A549 (NSCLC) cells): 8.51 µM

SMILES: CCC(C)c1ccc(NC(=O)c2ccn(S(=O)(=O)c3ccc4[nH]ccc4c3)n2)cc1F (stereo not shown) [Compound 106, 1-((1H-indol-5-yl)sulfonyl)-N-(4-(sec-butyl)-3-fluorophenyl)-1H-pyrazole-3-carboxamide]
- IC50 (A2780 (ovarian) cells): 9.85 µM
- IC50 (A549 (NSCLC) cells): 5.44 µM

SMILES: CCCc1ccc(NC(=O)c2ccn(S(=O)(=O)c3ccc4[nH]ccc4c3)n2)cc1F [Compound 110, 1-((1H-indol-5-yl)sulfonyl)-N-(3-fluoro-4-propylphenyl)-1H-pyrazole-3-carboxamide]
- IC50 (A2780 (ovarian) cells): 7.5 µM
- IC50 (A549 (NSCLC) cells): 8.06 µM

SMILES: CC(C)Cc1ccc(NC(=O)c2ccn(S(=O)(=O)c3ccc4[nH]ccc4c3)n2)cc1 [Compound 111, 1-((1H-indol-5-yl)sulfonyl)-N-(4-isobutylphenyl)-1H-pyrazole-3-carboxamide]
- IC50 (A2780 (ovarian) cells): 11.4 µM
- IC50 (A549 (NSCLC) cells): 6.85 µM

SMILES: CC(C)Cc1ccc(NC(=O)c2ccn(S(=O)(=O)c3ccc4[nH]ccc4c3)n2)cc1F [Compound 112, 1-((1H-indol-5-yl)sulfonyl)-N-(3-fluoro-4-isobutylphenyl)-1H-pyrazole-3-carboxamide]
- IC50 (A2780 (ovarian) cells): 8.81 µM
- IC50 (A549 (NSCLC) cells): 5.11 µM

SMILES: CC(C)(C)c1ccc(NC(=O)c2ccn(S(=O)(=O)c3ccc4[nH]ccc4c3)n2)cc1F [Compound 114, 1-((1H-indol-5-yl)sulfonyl)-N-(4-(tert-butyl)-3-fluorophenyl)-1H-pyrazole-3-carboxamide]
- IC50 (A2780 (ovarian) cells): 10.5 µM
- IC50 (A549 (NSCLC) cells): 5.93 µM

SMILES: COc1ccc(NC(=O)c2ccn(S(=O)(=O)c3ccc4[nH]ccc4c3)n2)cc1 [Compound 115, 1-((1H-indol-5-yl)sulfonyl)-N-(4-methoxyphenyl)-1H-pyrazole-3-carboxamide]
- IC50 (A2780 (ovarian) cells): > 30 µM
- IC50 (A549 (NSCLC) cells): > 30 µM

SMILES: COc1ccc(NC(=O)c2ccn(S(=O)(=O)c3ccc4[nH]ccc4c3)n2)cc1F [Compound 116, 1-((1H-indol-5-yl)sulfonyl)-N-(3-fluoro-4-methoxyphenyl)-1H-pyrazole-3-carboxamide]
- IC50 (A2780 (ovarian) cells): > 30 µM
- IC50 (A549 (NSCLC) cells): 13.4 µM

SMILES: O=C(Nc1ccc2c(c1)OCO2)c1ccn(S(=O)(=O)c2ccc3[nH]ccc3c2)n1 [Compound 117, 1-((1H-indol-5-yl)sulfonyl)-N-(benzo[d][1,3]dioxol-5-yl)-1H-pyrazole-3-carboxamide]
- IC50 (A2780 (ovarian) cells): > 30 µM
- IC50 (A549 (NSCLC) cells): > 30 µM
